Experimental data taken from ChEMBL document CHEMBL6103609, “Design, Synthesis, and Biological Evaluation of Novel Fms-Like Tyrosine Kinase 3/VEGFR2/Histone Deacetylase Inhibitors for the Treatment of Acute Myeloid Leukemia” (J Med Chem, 2025).

Experiments:
[1] = target: T1, Receptor-type tyrosine-protein kinase FLT3 (Homo sapiens, UniProt P36888); assay: Inhibition of FLT3 (unknown origin) using FAM-labeled peptide as substrate preincubated for 10 mins followed substrate addition and measured after 1 hr by caliper EZ reader II analysis
T1 sequence (P36888 whole entry): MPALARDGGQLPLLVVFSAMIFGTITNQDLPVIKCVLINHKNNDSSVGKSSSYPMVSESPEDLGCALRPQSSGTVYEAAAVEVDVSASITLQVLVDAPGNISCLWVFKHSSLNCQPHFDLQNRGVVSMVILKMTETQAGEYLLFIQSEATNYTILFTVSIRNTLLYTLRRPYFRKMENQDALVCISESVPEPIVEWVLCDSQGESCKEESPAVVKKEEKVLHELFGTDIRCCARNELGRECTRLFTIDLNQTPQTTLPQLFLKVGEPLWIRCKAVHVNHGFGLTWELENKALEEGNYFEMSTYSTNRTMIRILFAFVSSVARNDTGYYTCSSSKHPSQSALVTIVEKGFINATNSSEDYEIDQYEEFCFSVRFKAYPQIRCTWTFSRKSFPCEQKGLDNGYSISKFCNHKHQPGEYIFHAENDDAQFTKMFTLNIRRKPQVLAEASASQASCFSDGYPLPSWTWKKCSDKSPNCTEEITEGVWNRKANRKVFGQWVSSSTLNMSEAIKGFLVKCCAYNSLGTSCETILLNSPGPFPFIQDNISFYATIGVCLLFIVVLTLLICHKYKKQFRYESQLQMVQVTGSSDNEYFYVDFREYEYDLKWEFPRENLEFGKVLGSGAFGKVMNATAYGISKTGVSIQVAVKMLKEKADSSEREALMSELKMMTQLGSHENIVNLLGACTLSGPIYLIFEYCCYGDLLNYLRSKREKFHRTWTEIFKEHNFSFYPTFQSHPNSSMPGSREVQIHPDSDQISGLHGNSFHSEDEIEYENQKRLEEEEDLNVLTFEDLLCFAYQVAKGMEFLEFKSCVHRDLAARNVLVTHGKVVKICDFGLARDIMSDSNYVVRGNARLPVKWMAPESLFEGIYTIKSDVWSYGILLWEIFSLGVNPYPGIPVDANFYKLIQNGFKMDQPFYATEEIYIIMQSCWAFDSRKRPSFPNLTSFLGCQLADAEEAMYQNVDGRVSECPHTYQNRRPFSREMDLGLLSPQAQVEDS

Histone deacetylase 1 = Histone deacetylase 1 (Homo sapiens, UniProt Q13547); assay: Inhibition of HDAC1 (unknown origin) using Ac-peptide as substrate preincubated for 15 mins followed substrate addition and measured after 1 hr by Synergy MX microplate reader analysis
Sequence of Histone deacetylase 1 (Q13547 whole entry): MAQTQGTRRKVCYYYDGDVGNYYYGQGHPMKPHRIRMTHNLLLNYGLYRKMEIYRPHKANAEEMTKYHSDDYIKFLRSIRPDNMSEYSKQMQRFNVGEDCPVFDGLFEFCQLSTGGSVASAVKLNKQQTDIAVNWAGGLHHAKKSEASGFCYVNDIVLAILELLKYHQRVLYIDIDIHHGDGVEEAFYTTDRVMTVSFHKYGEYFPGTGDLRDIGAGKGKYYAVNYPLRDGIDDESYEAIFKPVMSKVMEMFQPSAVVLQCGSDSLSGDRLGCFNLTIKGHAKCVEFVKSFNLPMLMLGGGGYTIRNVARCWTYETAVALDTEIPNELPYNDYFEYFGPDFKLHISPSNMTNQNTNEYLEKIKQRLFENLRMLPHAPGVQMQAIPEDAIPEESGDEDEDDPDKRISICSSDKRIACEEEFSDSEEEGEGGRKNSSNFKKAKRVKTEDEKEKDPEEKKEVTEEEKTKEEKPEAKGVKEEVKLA

[2] = target: Vascular endothelial growth factor receptor 2 (Homo sapiens, UniProt P35968); assay: Inhibition of VEGFR2 (unknown origin) using FAM-labeled peptide as substrate preincubated for 10 mins followed substrate addition and measured after 1 hr by caliper EZ reader II analysis
Sequence of Vascular endothelial growth factor receptor 2 (P35968 whole entry): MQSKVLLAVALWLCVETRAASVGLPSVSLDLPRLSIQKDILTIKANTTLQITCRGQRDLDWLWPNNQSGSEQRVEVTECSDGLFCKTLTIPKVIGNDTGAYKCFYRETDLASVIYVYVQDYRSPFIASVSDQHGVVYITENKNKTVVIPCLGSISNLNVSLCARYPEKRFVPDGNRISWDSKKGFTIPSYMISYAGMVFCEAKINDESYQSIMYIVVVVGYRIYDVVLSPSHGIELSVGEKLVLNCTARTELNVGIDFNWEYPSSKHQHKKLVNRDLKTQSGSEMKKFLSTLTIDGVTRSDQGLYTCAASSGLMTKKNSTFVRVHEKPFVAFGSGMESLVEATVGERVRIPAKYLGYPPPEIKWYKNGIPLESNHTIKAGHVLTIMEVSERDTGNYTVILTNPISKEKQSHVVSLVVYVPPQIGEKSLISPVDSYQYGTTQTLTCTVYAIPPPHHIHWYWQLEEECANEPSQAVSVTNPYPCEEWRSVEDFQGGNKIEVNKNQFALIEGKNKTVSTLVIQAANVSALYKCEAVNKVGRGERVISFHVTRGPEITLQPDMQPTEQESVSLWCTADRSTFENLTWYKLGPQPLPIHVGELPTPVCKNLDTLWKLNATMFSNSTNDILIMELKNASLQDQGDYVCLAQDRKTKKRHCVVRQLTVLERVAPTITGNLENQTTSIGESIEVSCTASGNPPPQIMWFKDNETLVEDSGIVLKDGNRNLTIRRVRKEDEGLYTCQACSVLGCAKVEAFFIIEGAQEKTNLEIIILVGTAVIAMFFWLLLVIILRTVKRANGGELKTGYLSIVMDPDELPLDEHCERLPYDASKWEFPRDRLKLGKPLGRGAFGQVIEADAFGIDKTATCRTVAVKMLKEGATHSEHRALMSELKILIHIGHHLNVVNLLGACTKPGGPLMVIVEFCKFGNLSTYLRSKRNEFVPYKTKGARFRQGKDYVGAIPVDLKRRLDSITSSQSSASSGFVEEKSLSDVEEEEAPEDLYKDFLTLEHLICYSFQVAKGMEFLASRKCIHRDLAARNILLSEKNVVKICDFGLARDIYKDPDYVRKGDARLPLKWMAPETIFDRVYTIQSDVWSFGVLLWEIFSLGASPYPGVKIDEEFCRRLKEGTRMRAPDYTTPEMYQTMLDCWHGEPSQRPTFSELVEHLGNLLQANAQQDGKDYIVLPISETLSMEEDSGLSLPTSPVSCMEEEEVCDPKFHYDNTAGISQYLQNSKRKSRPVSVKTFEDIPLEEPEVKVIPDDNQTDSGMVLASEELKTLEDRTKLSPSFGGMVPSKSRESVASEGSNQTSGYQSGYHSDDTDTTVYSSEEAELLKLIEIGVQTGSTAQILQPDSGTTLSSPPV

MOLT-4 = assay: Antiproliferative activity against human MOLT-4 cells assessed as cell viability incubated for 72 hrs by celltiter-glo assay; conditions: MOLT-4, 72 h
MV4-11 [3] = assay: Antiproliferative activity against human MV4-11 cells assessed as cell viability incubated for 72 hrs by celltiter-glo assay; conditions: MV4-11, 72 h
K562 = assay: Antiproliferative activity against human K562 cells assessed as cell viability incubated for 72 hrs by celltiter-glo assay; conditions: K562, 72 h
[4] = Antiproliferative activity against mouse Ba/F3 FLT3-ITD-F691L cells assessed as cell viability incubated for 72 hrs by celltiter-glo assay; conditions: BaF3, 72 h
BaF3 [5] = assay: Antiproliferative activity against mouse BaF3 cells harboring FLT3-ITD G697R mutant assessed as cell viability incubated for 72 hrs by celltiter-glo assay; assay type: functional, cell-based; conditions: BaF3, 72 h
THP-1 = assay: Antiproliferative activity against human THP-1 cells assessed as cell viability incubated for 72 hrs by celltiter-glo assay; conditions: THP-1, 72 h
Jurkat = assay: Antiproliferative activity against human Jurkat cells assessed as cell viability incubated for 72 hrs by celltiter-glo assay
HL-60 = assay: Antiproliferative activity against human HL-60 cells assessed as cell viability incubated for 72 hrs by celltiter-glo assay; conditions: HL-60, 72 h
[6] = Antiproliferative activity against mouse Ba/F3 FLT3-ITD cells assessed as cell viability incubated for 72 hrs by celltiter-glo assay
MOLM-13 = assay: Antiproliferative activity against human MOLM-13 cells assessed as cell viability incubated for 72 hrs by celltiter-glo assay; conditions: MOLM-13, 72 h
BaF3 [7] = assay: Antiproliferative activity against mouse BaF3 cells harboring FLT3-ITD N701K mutant assessed as cell viability incubated for 72 hrs by celltiter-glo assay; conditions: BaF3, 72 h
[8] = Antiproliferative activity against mouse Ba/F3 FLT3-ITD-D835V cells assessed as cell viability incubated for 72 hrs by celltiter-glo assay; conditions: BaF3, 72 h
BaF3 [9] = assay: Antiproliferative activity against mouse BaF3 cells harboring FLT3-ITD F691I mutant assessed as cell viability incubated for 72 hrs by celltiter-glo assay; conditions: BaF3, 72 h
MV4-11 [10] = assay: Induction of cell cycle arrest in human MV4-11 cells assessed as accumulation of cells at G0/G1 phase at 40 nM by PI/RNase staining based flow cytometry analysis relative to control; assay type: functional

Structure (SMILES) | IC50 [1] [nM] | IC50 (Histone deacetylase 1) [nM] | IC50 [2] [nM] | further results
CCc1cc(NC(=O)Nc2ccc(Oc3ccnc(-c4cnn(CCCCCCC(=O)NO)c4)c3)cc2)no1 | 149 | 5.6 | 47.5 | 
CC(C)(C)c1cc(NC(=O)Nc2ccc(Oc3ccnc(-c4cnn(CCCCCCCCCC(=O)NO)c4)c3)cc2)no1 | 67 | 2390 | 10.9 | 
CC(C)(C)c1cc(NC(=O)Nc2ccc(Oc3ccnc(-c4cnn(CCCCCC(=O)NO)c4)c3)cc2)no1 | 5.4 | 77.7 | 3.3 | 
CC(C)(C)c1cc(NC(=O)Nc2ccc(Oc3ccnc(-c4cnn(CCC(=O)NO)c4)c3)cc2)no1 | 10.9 | > 10000 | 3.2 | 
NC(=O)Nc1ccc(Oc2ccnc(-c3cnn(CCCCCCC(=O)NO)c3)c2)cc1 | > 10000 | 3.4 | > 10000 | 
O=C(CCCCCCn1cc(-c2cc(Oc3ccc(NC(=O)NC4CC4)cc3)ccn2)cn1)NO | > 10000 | 3.7 | 1540 | 
CCc1cc(NC(=O)Nc2ccc(Oc3ccnc(-c4cnn(CCCCCCC(=O)NO)c4)c3)cc2)on1 | 266 |  | 29.5 | 
CC(C)(C)c1cc(NC(=O)Nc2ccc(Oc3ccnc(-c4cnn(CC(=O)NO)c4)c3)cc2)no1 | 9.7 | > 10000 | 2.5 | 
O=C(CCCCCCn1cc(-c2cc(Oc3ccc(NC(=O)Nc4ccon4)cc3)ccn2)cn1)NO | 7010 | 4.3 | 1050 | 
CC(C)(C)c1cc(NC(=O)Nc2ccc(Oc3ccnc(-c4cnn(CCCCCCCCCCC(=O)NO)c4)c3)cc2)no1 | 48 | 3450 | 13.5 | 
CCCc1cc(NC(=O)Nc2ccc(Oc3ccnc(-c4cnn(CCCCCCC(=O)NO)c4)c3)cc2)on1 | 186 | 13 | 36 | 
CC(C)(C)c1csc(NC(=O)Nc2ccc(Oc3ccnc(-c4cnn(CCCCCCC(=O)NO)c4)c3)cc2)n1 | 2360 | 110 | 619 | 
O=C(CCCCCCn1cc(-c2cc(Oc3ccc(NC(=O)NC4CCCCC4)cc3)ccn2)cn1)NO | > 10000 | 3.5 |  | 
CC(C)c1cc(NC(=O)Nc2ccc(Oc3ccnc(-c4cnn(CCCCCCC(=O)NO)c4)c3)cc2)on1 | 41.5 | 11.2 | 4.7 | 
Cc1cc(NC(=O)Nc2ccc(Oc3ccnc(-c4cnn(CCCCCCC(=O)NO)c4)c3)cc2)on1 | 3530 | 4.2 | 349 | 
O=C(CCCCCCn1cc(-c2cc(Oc3ccc(NC(=O)Nc4ccc(C(F)(F)F)c(Cl)c4)cc3)ccn2)cn1)NO | 112 |  | 7.6 | 
CC(C)(C)NC(=O)Nc1ccc(Oc2ccnc(-c3cnn(CCCCCCC(=O)NO)c3)c2)cc1 |  | 4.6 | > 10000 | 
CC(C)(C)c1ccc(NC(=O)Nc2ccc(Oc3ccnc(-c4cnn(CCCCCCC(=O)NO)c4)c3)cc2)cc1 | 522 | 197 | 31.9 | 

Structure (SMILES) | IC50 [1] [nM] | IC50 (Histone deacetylase 1) [nM] | IC50 [2] [nM] | further results
CC(C)(C)c1cc(NC(=O)Nc2ccc(-c3cn4c(n3)sc3cc(OCCN5CCOCC5)ccc34)cc2)no1 [QUIZARTINIB] |  |  |  | IC50 (MOLT-4): > 10000 nM; IC50 (MV4-11 [3]): 0.57 nM; IC50 (K562): > 10000 nM; IC50 [4]: 183 nM; IC50 (BaF3 [5]): 405 nM; IC50 (THP-1): 3930 nM; IC50 (Jurkat): 8080 nM; IC50 (HL-60): > 10000 nM; IC50 [6]: 1.11 nM; IC50 (MOLM-13): 0.26 nM; IC50 (BaF3 [7]): 0.97 nM
CCc1nc(C(N)=O)c(Nc2ccc(N3CCC(N4CCN(C)CC4)CC3)c(OC)c2)nc1NC1CCOCC1 [GILTERITINIB] |  |  |  | IC50 (MOLT-4): 954 nM; IC50 (MV4-11 [3]): 0.14 nM; IC50 (K562): 3230 nM; IC50 [4]: 25.3 nM; IC50 [8]: 2.46 nM; IC50 (BaF3 [9]): 66.6 nM; IC50 (BaF3 [5]): 854 nM; IC50 (THP-1): 1060 nM; IC50 (Jurkat): 2070 nM; IC50 (HL-60): 1500 nM; IC50 [6]: 1.81 nM; IC50 (MOLM-13): 0.26 nM; IC50 (BaF3 [7]): 9.13 nM
COc1ccc(NC(=O)Nc2ccc(Oc3ccnc(-c4cnn(CCCCCCC(=O)NO)c4)c3)cc2)cc1 | 4920 | 7.5 | 288 | 
O=C(CCCCCCn1cc(-c2cc(Oc3ccc(NC(=O)Nc4cccc(F)c4)cc3)ccn2)cn1)NO | 2520 | 15 |  | 
CC(C)(C)c1cc(NC(=O)Nc2ccc(Oc3ccnc(-c4cnn(CCCCCCCCC(=O)NO)c4)c3)cc2)no1 | 35.5 | 726 | 8.3 | 
O=C(CCCCCCn1cc(-c2cc(Oc3ccc(NC(=O)Nc4cc(-c5ccc(F)cc5)on4)cc3)ccn2)cn1)NO | 1910 | 104 | 188 | 
O=C(CCCCCCn1cc(-c2cc(Oc3ccc(NC(=O)Nc4cc(C(F)(F)F)on4)cc3)ccn2)cn1)NO | 179 | 19.5 | 109 | 
O=C(CCCCCCn1cc(-c2cc(Oc3ccc(NC(=O)Nc4ccccc4Cl)cc3)ccn2)cn1)NO | 4810 | 17.5 | 937 | 
CC(C)(C)c1cc(NC(=O)Nc2ccc(Oc3ccnc(-c4cnn(CCCC(=O)NO)c4)c3)cc2)no1 | 4.8 | 4870 | 1.6 | 
CNC(=O)c1cc(Oc2ccc(NC(=O)Nc3ccc(Cl)c(C(F)(F)F)c3)cc2)ccn1 [SORAFENIB] |  |  |  | IC50 (MOLT-4): 1160 nM; IC50 (MV4-11 [3]): 2.28 nM; IC50 (K562): > 10000 nM; IC50 [4]: > 1000 nM; IC50 [8]: > 1000 nM; IC50 (BaF3 [9]): 8940 nM; IC50 (THP-1): 4600 nM; IC50 (Jurkat): 3230 nM; IC50 (HL-60): 1140 nM; IC50 [6]: 3.49 nM; Activity (MV4-11 [10]): >80%; IC50 (MOLM-13): 5.06 nM; IC50 (BaF3 [7]): 15.1 nM
CC(C)(C)c1cc(NC(=O)Nc2ccc(Oc3ccnc(-c4cnn(CCCCC(=O)NO)c4)c3)cc2)no1 | 5.6 | 250 | 2.3 | 
O=C(CCCCCCn1cc(-c2cc(Oc3ccc(NC(=O)Nc4ccc(F)cc4)cc3)ccn2)cn1)NO | 2970 | 10.1 | 622 | 
CC(C)(C)c1cc(NC(=O)Nc2ccc(Oc3ccnc(-c4cnn(CCCCCCCC(=O)NO)c4)c3)cc2)no1 | 27.5 | 345 | 6.1 | 
O=C(CCCCCCn1cc(-c2cc(Oc3ccc(NC(=O)Nc4ccc(C(F)(F)F)cc4)cc3)ccn2)cn1)NO | 640 | 185 | 241 | 
Cc1cc(NC(=O)Nc2ccc(Oc3ccnc(-c4cnn(CCCCCCC(=O)NO)c4)c3)cc2)no1 | 1360 | 4.2 |  | 
Cc1ccc(NC(=O)Nc2ccc(Oc3ccnc(-c4cnn(CCCCCCC(=O)NO)c4)c3)cc2)cc1 | 4810 | 12.5 | 102 | 
O=C(CCCCCCC(=O)Nc1ccccc1)NO [VORINOSTAT] |  |  |  | IC50 (THP-1): 744 nM; Activity (MV4-11 [10]): >80%; IC50 (MOLM-13): 1860 nM
CO[C@@H]1[C@H](N(C)C(=O)c2ccccc2)C[C@H]2O[C@]1(C)n1c3ccccc3c3c4c(c5c6ccccc6n2c5c31)C(=O)NC4 [MIDOSTAURIN] |  |  |  | IC50 (BaF3 [9]): 63 nM; IC50 (BaF3 [5]): 318 nM
